Measured values taken from patent publication US9655877B2, “Therapeutic methods for treating inflammation and immune system disorders” (priority 2009, dated 2017).

Key:
Type in all cases: cell-based, murine
NF-kB p65 = assay: Nuclear translocation of NF-kB p65 in LPS-stimulated BV-2 cells, Western blot; details: 50 μg/ml pretreatment 1 h, 100 ng/ml LPS 30 min
Experimental: BV-2 cells (2×10^5 cells/ml) were pretreated with either 0.05% DMSO or 50 μg/ml senkyunolide A for 1 h, followed by treatment with 100 ng/ml LPS for another 30 min. (A) Cytoplasmic proteins were extracted and analyzed by Western Blot using antibodies specific for phospho-p38, phospho-JNK, phospho-ERK 1/2 and actin. (B) Nuclear proteins were extracted and analyzed by Western Blot against NF-kB p65 and lamin B antibodies. 10^5 cells/ml BV-2 cells were first pretreated with senkyunolide A for 1 h. After induction by 100 ng/ml LPS for 30 min, the culture medium was discarded. Cytoplasmic proteins and nuclear proteins were extracted separately by buffer A and buffer C as described in our previous report^28. The cell lysates were separated by 10% SDS-polyacrylamide gel electrophoresis and transferred to a nitrocellulose membrane (Schleicher & Schuell, Germany). The cell lysates were incubated with specific antibodies (phospho-MAP kinases, Actin, NF-kB p65 and Lamin B) overnight. After three washes, the membranes were incubated with the corresponding secondary antibodies. The bands were detected using the Enhanced Chemiluminescence System (GE Healthcare, Piscataway, N.J., USA) according to the manufacturer's instructions. The NF-kB pathway plays a key role in the transcriptional regulation of inflammatory mediators. […]

[1] = test system: TNF-α protein production in BV-2 cells; assay: LPS-induced TNF-α protein production in BV-2 cells, ELISA; details: 100 ng/ml LPS, 18 hours
Experimental: To measure the TNF-α level in cell culture supernatants, BV-2 cells were seeded at 1×10^5 cells/ml in the volume of 0.5 ml in 24-well culture plates. They were co-treated with or without 100 ng/ml LPS in the absence or presence of indicated concentrations of bioactive compounds of LCX for 18 h. In addition, PBMac cells were seeded at 1×10^6 cells/ml in the volume of 0.5 ml in 24-well plates. After incubation, the supernatants were collected and TNF-α levels were determined by ELISA according to the manufacturer's instructions (R&D Systems).
The role of senkyunolide A (Sen A) and Z-ligustilide (Z-Lig) in suppressing TNF-α production is further evaluated in this Example. Briefly, 5×10^4 cells/ml BV-2 cells are seeded in 24-well plates (0.5 ml in each well). Cells are treated with 0.05% DMSO; 0.05% DMSO and 100 ng/ml LPS; 50 μg/ml Sen A/Z-Lig; or 100 ng/ml LPS and Sen A/Z-Lig at a concentration of 1 μg/ml, 5 μg/ml, 10 μg/ml, 25 μg/ml, and 50 μg/ml for 18 hours, respectively. The culture supernatant is collected and the level of secreted TNF-α is measured by ELISA.

TNF-α mRNA = TNF-α mRNA stability assay (actinomycin D) in BV-2 cells; details: compound 1 hour, LPS 2 hours, then 1 μg/ml actinomycin
Experimental: 10^5 BV-2 cells were first stimulated by 100 ng/ml LPS. After 2 h of LPS treatment, transcription inhibitor actinomycin D (Act D) at a concentration of 1 ug/ml was added to stop the mRNA synthesis. Total RNA was harvested at indicated time points after actinomycin D treatment (post-Act D). The level of TNF-α mRNA was measured by real-time quantitative RT-PCR. In addition, the effect of senkyunolide A on TNF-α mRNA stability is evaluated. Specifically, 10^5 cells/ml BV-2 cells are seeded in 24-well plates (0.5 ml in each well). Cells are treated with Sen A at various concentrations for 1 hour prior to the addition of LPS for another 2 hours, and further incubated with 1 μg/ml actinomycin for various time periods. Total RNA of the treated samples is isolated and subjected to real-time RT-PCR.

[2] = test system: nitrite production in BV-2 cells; assay: LPS-induced nitrite (nitric oxide) production in BV-2 cells, Griess reagent; details: 100 ng/ml LPS, 18 hours
Experimental: Nitrite levels in the culture media were determined using Griess reagent under manufacturer's instructions (Sigma Aldrich, St. Louis, Mo.). Fresh culture media were used as blanks and the nitrite levels were determined by using a standard sodium nitrite curve.
The effect of each extract on nitric oxide production is evaluated according to the procedures illustrated as follows. Briefly, murine microglia cell line BV-2 is maintained in Dulbecco's modified Eagle's minimum essential medium (DMEM) supplemented with 10% FBS and 1% penicillin and streptomycin (Invitrogen Life Technologies, Carlsbad, Calif.) at 37° C. in a humidified atmosphere with 5% CO2 in warm air.
0.1 M cells/ml BV-2 cells are seeded in 24-well plates (0.5 ml in each well). Cells are treated with 0.05% DMSO; 0.05% DMSO and 100 ng/ml LPS; or 100 ng/ml LPS and 50 μg/ml of an LCX extract for 18 hours, respectively. The culture supernatant is collected. The nitric oxide level is measured using the Griess reagent according to standard manufacturer's instructions (Sigma Aldrich, St. Louis, Mo.), and assessed using the standard sodium nitrite curve.
The effect of senkyunolide A (Sen A) and Z-ligustilide (Z-Lig) at various concentrations on LPS-induced nitrite production is further evaluated in this Example. Briefly, 0.1 M cells/ml BV-2 cells are seeded in 24-well plates (0.5 ml in each well). Cells are treated with 0.05% DMSO; 0.05% DMSO and 100 ng/ml LPS; 50 μg/ml Sen A/Z-Lig; or 100 ng/ml LPS and Sen A/Z-Lig at a concentration of 1 μg/ml, 5 μg/ml, 10 μg/ml, 25 μg/ml, and 50 μg/ml for 18 hours, respectively. The culture supernatant is collected. The nitric oxide level is measured using the Griess reagent according to standard manufacturer's instructions (Sigma Aldrich, St. Louis, Mo.), and evaluated using the standard sodium nitrite curve.

With `CCCC[C@H]1OC(=O)C2=C1CCC=C2` [senkyunolide A] the “effect on translocation of NF-kB p65 into the nucleus” value (NF-kB p65) was “did not exert an inhibitory effect”, the “reduction in TNF-α production” value ([1]; 10 μg/ml) was “approximately 2 fold” and the “reduction in TNF-α production” value ([1]; 25 μg/ml) was ~4 fold. The “reduction in TNF-α production” value ([1]; 50 μg/ml) was ~10 fold, the “effect on TNF-α mRNA stability” value (TNF-α mRNA) was “destabilizes TNF-α mRNA” and the “reduction of TNF-α mRNA half life” value (TNF-α mRNA) was 43%. For the same compound, the “reduction in nitrite production” value ([2]; 10 μg/ml) was “approximately 4 fold”, the “reduction in nitrite production” value ([2]; 25 μg/ml) was ~20 fold and the “effect on nitrite production” value ([2]; 50 μg/ml) was “almost completely inhibits nitrite production”.
